Test results as given in US9120791B2, “Indolizine compounds, a process for their preparation and pharmaceutical compositions containing them” (LES LABORATOIRES SERVIER, priority 2012, dated 2015).
Counter-ions that a name gives are not always drawn. Like-named read-outs stand apart in the source and are kept apart here.

Columns and labels:
Bcl-2 protein = Bcl-2 protein (Homo sapiens (Human), UniProt P10415); experiment: Inhibition of Bcl-2 by the fluorescence polarisation technique; assay type: binding; conditions: read-out: IC50 (nM) Bcl-2 FP
Description: The fluorescence polarisation tests were carried out on microplates (384 wells). […] After incubation for 2 hours, the fluorescence polarisation is measured.

[1] = tested on: RS4;11 leukaemia tumour line; experiment: In vitro cytotoxicity (Microculture Tetrazolium Assay, 48 hours); assay type: cell-based; conditions: RS4;11 cells, 48 hours exposure, MTT, concentration that inhibits cell viability by 50%, read-out: IC50 (nM) MTT RS4
Description: The cytotoxicity studies were carried out on the RS4;11 leukaemia tumour line.
The cells are distributed onto microplates and exposed to the test compounds for 48 hours.

[2] = fluorescence polarisation test, concentration that inhibits fluorescence polarisation by 50%

Sequence of Bcl-2 protein (P10415 whole entry): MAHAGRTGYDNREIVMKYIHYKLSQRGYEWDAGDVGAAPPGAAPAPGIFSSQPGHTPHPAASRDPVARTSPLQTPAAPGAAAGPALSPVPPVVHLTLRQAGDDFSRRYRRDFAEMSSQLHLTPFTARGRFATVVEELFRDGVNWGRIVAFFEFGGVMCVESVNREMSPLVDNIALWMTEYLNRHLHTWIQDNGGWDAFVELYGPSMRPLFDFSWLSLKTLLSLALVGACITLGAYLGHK

SMILES | IC50 (Bcl-2 protein; [2]) | IC50 ([1]; Homo sapiens) | IC50 (Bcl-2 protein) | IC50 [1]
CN(C)C[C@@H]1Cc2ccccc2CN1C(=O)c1ccc(Cl)cc1-c1cc(C(=O)N(c2ccc(O)cc2)c2ccc3c(ccn3C)c2)c2n1CCCC2 [Example 52, 3-{5-Chloro-2-[((3S)-3-[(dimethylamino)methyl]-3,4-dihydro-2(1H)-isoquinolinyl)carbonyl]phenyl}-N-(4-hydroxyphenyl)-N-(1-methyl-1H-indol-5-yl)-5,6,7,8-tetrahydro-1-indolizine carboxamide hydrochloride] | 16 nM | 19.8 nM |  | 
Cn1ccc2cc(N(C(=O)c3cc(-c4cc5c(cc4C(=O)N4Cc6ccccc6C[C@H]4CN4CCOCC4)OCCCO5)n4c3CCCC4)c3ccc(O)cc3)ccc21 [Example 32, N-(4-Hydroxyphenyl)-N-(1-methyl-1H-indol-5-yl)-3-{8-[((3S)-3-(4-morpholinylmethyl)-3,4-dihydro-2(1H)-isoquinolinyl)carbonyl]-3,4-dihydro-2H-1,5-benzodioxepin-7-yl}-5,6,7,8-tetrahydro-1-indolizine carboxamide hydrochloride] | 34 nM | 71.3 nM |  | 
O=C(c1cc(-c2cc(F)ccc2C(=O)N2Cc3ccccc3C[C@H]2CN2CCOCC2)n2c1COCC2)N(c1ccc(O)cc1)c1ccc(F)cc1 [Example 99, 6-(5-Fluoro-2-{[(3S)-3-(morpholin-4-ylmethyl)-3,4-dihydroisoquinolin-2(1H)-yl]carbonyl}phenyl)-N-(4-fluorophenyl)-N-(4-hydroxyphenyl)-3,4-dihydro-1H-pyrrolo[2,1-c][1,4]oxazine-8-carboxamide hydrochloride] | 25 nM | 213 nM |  | 
C[C@H]1COCCN1C[C@@H]1Cc2ccccc2CN1C(=O)c1cc2c(cc1-c1cc(C(=O)N(c3ccc(O)cc3)c3ccc4c(ccn4C)c3)c3n1CCCC3)OCO2 [Example 16, N-(4-Hydroxyphenyl)-N-(1-methyl-1H-indol-5-yl)-3-{6-[((3S)-3-{[(3S)-3-methylmorpholinyl]methyl}-3,4-dihydro-2(1H)-isoquinolinyl)carbonyl]-1,3-benzodioxol-5-yl}-5,6,7,8-tetrahydro-1-indolizine carboxamide hydrochloride] |  |  | 18 nM | 23.4 nM
CN1CCCc2cc(N(C(=O)c3cc(-c4cc(Cl)ccc4C(=O)N4Cc5ccccc5C[C@H]4CN4CCOCC4)n4c3CCCC4)c3ccc(O)cc3)ccc21 [Example 26, 3-{5-Chloro-2-[((3S)-3-(4-morpholinylmethyl)-3,4-dihydro-2(1H)-isoquinolinyl)carbonyl]phenyl}-N-(4-hydroxyphenyl)-N-(1-methyl-1,2,3,4-tetrahydro-6-quinolinyl)-5,6,7,8-tetrahydro-1-indolizine carboxamide hydrochloride] | 17 nM | 40 nM |  | 
CCN(CCOC)C[C@@H]1Cc2ccccc2CN1C(=O)c1ccc(Cl)cc1-c1cc(C(=O)N(c2ccc(O)cc2)c2ccc3c(ccn3C)c2)c2n1CCCC2 [Example 110, 3-(5-Chloro-2-{[(3S)-3-{[ethyl(2-methoxyethyl)amino]methyl}-3,4-dihydroisoquinolin-2(1H)-yl]carbonyl}phenyl)-N-(4-hydroxyphenyl)-N-(1-methyl-1H-indol-5-yl)-5,6,7,8-tetrahydroindolizine-1-carboxamide hydrochloride] | 29 nM | 129 nM |  | 
CN1CCN(C[C@@H]2Cc3ccccc3CN2C(=O)c2ccc(Cl)cc2-c2cc(C(=O)N(c3ccc(O)cc3)c3ccc4c(ccn4C)c3)c3n2CCC3)CC1 [Example 77, 5-{5-Chloro-2-[((3S)-3-[(4-methyl-1-piperazinyl)methyl]-3,4-dihydro-2(1H)-isoquinolinyl)carbonyl]phenyl}-N-(4-hydroxyphenyl)-N-(1-methyl-1H-indol-5-yl)-2,3-dihydro-1H-pyrrolizine-7-carboxamide bis(hydrochloride)] | 23 nM | 70.4 nM |  | 
O=C(c1cc(-c2cc3c(cc2C(=O)N2Cc4ccccc4C[C@H]2CN2CCN(CC(F)(F)F)CC2)OCO3)n2c1CCCC2)N(c1ccccc1)c1ccc(O)cc1 [Example 127, N-(4-Hydroxyphenyl)-N-phenyl-3-(6-{[(3S)-3-{[4-(2,2,2-trifluoroethyl)-piperazin-1-yl]methyl}-3,4-dihydroisoquinolin-2(1H)-yl]carbonyl}-1,3-benzodioxol-5-yl)-5,6,7,8-tetrahydroindolizine-1-carboxamide hydrochloride] | 26 nM | 129 nM |  | 
C[C@@H]1COCCN1C[C@@H]1Cc2ccccc2CN1C(=O)c1cc2c(cc1-c1cc(C(=O)N(c3ccc(O)cc3)c3ccc4c(ccn4C)c3)c3n1CCCC3)OCO2 [Example 15, N-(4-Hydroxyphenyl)-N-(1-methyl-1H-indol-5-yl)-3-{6-[((3S)-3-{[(3R)-3-methylmorpholinyl]methyl}-3,4-dihydro-2(1H)-isoquinolinyl)carbonyl]-1,3-benzodioxol-5-yl}-5,6,7,8-tetrahydro-1-indolizine carboxamide hydrochloride] |  |  | 17 nM | 20.4 nM
CC(C)n1ccc2cc(N(C(=O)c3cc(-c4cc5c(cc4C(=O)N4Cc6ccccc6C[C@H]4CN4CCOCC4)OCO5)n4ccccc34)c3ccc(O)cc3)ccc21 [Example 62, N-(4-Hydroxyphenyl)-N-(1-isopropyl-1H-indol-5-yl)-3-{6-[((3S)-3-(4-morpholinylmethyl)-3,4-dihydro-2(1H)-isoquinolinyl)carbonyl]-1,3-benzodioxol-5-yl}-1-indolizine carboxamide hydrochloride] | 22 nM | 19.3 nM |  | 
CCN1CCc2cc(N(C(=O)c3cc(-c4cc5c(cc4C(=O)N4Cc6ccccc6C[C@H]4CN4CCOCC4)OCO5)n4ccccc34)c3ccc(O)cc3)ccc21 [Example 63, N-(1-Ethyl-2,3-dihydro-1H-indol-5-yl)-N-(4-hydroxyphenyl)-3-{6-[((3S)-3-(4-morpholinylmethyl)-3,4-dihydro-2(1H)-isoquinolinyl)carbonyl]-1,3-benzodioxol-5-yl}-1-indolizine carboxamide hydrochloride] | 21 nM | 18.8 nM |  | 

More lines, main results first:

IC50 (Bcl-2 protein; [2]) | SMILES | IC50 ([1]; Homo sapiens) | IC50 (Bcl-2 protein) | IC50 [1]
15 nM | CN1CCCc2cc(N(C(=O)c3cc(-c4cc5c(cc4C(=O)N4Cc6ccccc6C[C@H]4CN4CCOCC4)OCCO5)n4c3CCCC4)c3ccc(O)cc3)ccc21 [Example 40, N-(4-Hydroxyphenyl)-N-(1-methyl-1,2,3,4-tetrahydro-6-quinolinyl)-3-{7-[((3S)-3-(4-morpholinylmethyl)-3,4-dihydro-2(1H)-isoquinolinyl)carbonyl]-2,3-dihydro-1,4-benzodioxin-6-yl}-5,6,7,8-tetrahydro-1-indolizine carboxamide hydrochloride] | 32.2 nM |  | 
13 nM | Cn1ncc2cc(N(C(=O)c3cc(-c4cc(Cl)ccc4C(=O)N4Cc5ccccc5C[C@H]4CN4CCOCC4)n4c3CCCC4)c3ccc(O)cc3)ccc21 [Example 42, 3-{5-Chloro-2-[((3S)-3-(4-morpholinylmethyl)-3,4-dihydro-2(1H)-isoquinolinyl)carbonyl]phenyl}-N-(4-hydroxyphenyl)-N-(1-methyl-1H-indazol-5-yl)-5,6,7,8-tetrahydro-1-indolizine carboxamide hydrochloride] | 53.6 nM |  | 
9 nM | N#Cc1cccc(N(C(=O)c2cc(-c3cc(Cl)ccc3C(=O)N3Cc4ccccc4C[C@H]3CN3CCOCC3)n3c2CCCC3)c2ccc(O)cc2)c1 [Example 119, 3-(5-Chloro-2-{[(3S)-3-(morpholin-4-ylmethyl)-3,4-dihydroisoquinolin-2(1H)-yl]carbonyl}phenyl)-N-(3-cyanophenyl)-N-(4-hydroxyphenyl)-5,6,7,8-tetrahydroindolizine-1-carboxamide hydrochloride] | 31.6 nM |  | 
12 nM | CN1CCN(C[C@@H]2Cc3ccccc3CN2C(=O)c2cc3c(cc2-c2cc(C(=O)N(c4ccc(O)cc4)c4ccc5c(ccn5C)c4)c4n2CCCC4)OCO3)CC1 [Example 13, N-(4-Hydroxyphenyl)-N-(1-methyl-1H-indol-5-yl)-3-{6-[((3S)-3-[(4-methyl-1-piperazinyl)methyl]-3,4-dihydro-2(1H)-isoquinolinyl)carbonyl]-1,3-benzodioxol-5-yl}-5,6,7,8-tetrahydro-1-indolizine carboxamide bis(hydrochloride)] | 8.63 nM |  | 
15 nM | Cn1ccc2cc(N(C(=O)c3cc(-c4cc5c(cc4C(=O)N4Cc6ccccc6C[C@H]4CN4CCOCC4)OCCO5)n4c3CCCC4)c3ccc(O)cc3)ccc21 [Example 35, N-(4-Hydroxyphenyl)-N-(1-methyl-1H-indol-5-yl)-3-{7-[((3S)-3-(4-morpholinylmethyl)-3,4-dihydro-2(1H)-isoquinolinyl)carbonyl]-2,3-dihydro-1,4-benzodioxin-6-yl}-5,6,7,8-tetrahydro-1-indolizine carboxamide] | 11.7 nM |  | 
9 nM | COc1ccc(C(=O)N2Cc3ccccc3C[C@H]2CN2CCOCC2)c(-c2cc(C(=O)N(c3ccccc3)c3ccc(O)cc3)c3n2CCCC3)c1 [Example 112, N-(4-Hydroxyphenyl)-3-(5-methoxy-2-{[(3S)-3-(morpholin-4-ylmethyl)-3,4-dihydroisoquinolin-2(1H)-yl]carbonyl}phenyl)-N-phenyl-5,6,7,8-tetrahydroindolizine-1-carboxamide hydrochloride] | 139 nM |  | 
12 nM | Cc1ccc(N(C(=O)c2cc(-c3cc(F)ccc3C(=O)N3Cc4ccccc4C[C@H]3CN3CCOCC3)n3c2COCC3)c2ccc(O)cc2)cc1F [Example 98, N-(3-Fluoro-4-methylphenyl)-6-(5-fluoro-2-{[(3S)-3-(morpholin-4-ylmethyl)-3,4-dihydroisoquinolin-2(1H)-yl]carbonyl}phenyl)-N-(4-hydroxyphenyl)-3,4-dihydro-1H-pyrrolo[2,1-c][1,4]oxazine-8-carboxamide hydrochloride] | 73.5 nM |  | 
